Test results published in patent publication US6613718B2, “Aryl ether derivatives and processes for their preparation and herbicidal and desiccant compositions containing them” (Ishihara Sangyo Kaisha, Ltd., priority 2001, dated 2003).

Tests used:
Type in all cases: in vivo
Conditions in all cases: 14 days after application
[1] = tested on: soybean (Glycine max L., var. Pella 86, SOY); test: Post-emerge greenhouse screening, crop safety (phytotoxicity rating)
Summary of the method: (§1)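 Greenhouse screen. Sowing preceded application by one day (pre-emergence) or 8-21 days (post-emergence). Doses spanned 15 to 1000 g ai/ha in acetone. Score at day 14: 0 no injury, 100 total kill.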

[2] = tested on: upland rice (Oryza sp., var.Tebonnet, RICE); test: as above
Summary of the method: as §1

[3] = tested on: lambsquarters (Chenopodium album, CHEAL); test: Pre-emerge greenhouse herbicide activity screening, phytotoxicity rating
Summary of the method: as §1

[4] = tested on: redroot pigweed (Amaranthus retroflexus, AMARE); test: as above
Summary of the method: as §1

[5] = tested on: common ragweed (Ambrosia artemisiifolia L., AMBEL); test: as above
Summary of the method: as §1

[6] = tested on: ivyleaf morningglory (Ipomoea hederacea, IPOHE); test: as above
Summary of the method: as §1

[7] = tested on: johnsongrass (Sorghum halepense, SORHA); test: as above
Summary of the method: as §1

[8] = tested on: sicklepod (Cassia obtusifolia, CASOB); test: as above
Summary of the method: as §1

[9] = tested on: barnyardgrass (Echinochloa crus-galli, ECHCG); test: as above
Summary of the method: as §1

[10] = tested on: large crabgrass (Digitaria sanguinalis, DIGSA); test: as above
Summary of the method: as §1

[11] = tested on: velvetleaf (Abutilon theophrasti, ABUTH); test: as above
Summary of the method: as §1

[12] = tested on: green foxtail (Setaria viridis, SETVI); test: as above
Summary of the method: as §1

[13] = tested on: soybean (Glycine max L., var. Pella 86, SOY); test: Pre-emerge greenhouse screening, crop safety (phytotoxicity rating)
Summary of the method: as §1

[14] = tested on: upland rice (Oryza sp., var.Tebonnet, RICE); test: as above
Summary of the method: as §1

[15] = tested on: field corn (Zea mays L., var. Dekalb 535, CORN); test: as above
Summary of the method: as §1

[16] = tested on: lambsquarters (Chenopodium album, CHEAL); test: Post-emerge greenhouse herbicide activity screening, phytotoxicity rating
Summary of the method: as §1

[17] = tested on: redroot pigweed (Amaranthus retroflexus, AMARE); test: as above
Summary of the method: as §1

[18] = tested on: common ragweed (Ambrosia artemisiifolia L., AMBEL); test: as above
Summary of the method: as §1

[19] = tested on: ivyleaf morningglory (Ipomoea hederacea, IPOHE); test: as above
Summary of the method: as §1

[20] = tested on: johnsongrass (Sorghum halepense, SORHA); test: as above
Summary of the method: as §1

[21] = tested on: sicklepod (Cassia obtusifolia, CASOB); test: as above
Summary of the method: as §1

[22] = tested on: barnyardgrass (Echinochloa crus-galli, ECHCG); test: as above
Summary of the method: as §1

[23] = tested on: large crabgrass (Digitaria sanguinalis, DIGSA); test: as above
Summary of the method: as §1

[24] = tested on: velvetleaf (Abutilon theophrasti, ABUTH); test: as above
Summary of the method: as §1

[25] = tested on: green foxtail (Setaria viridis, SETVI); test: as above
Summary of the method: as §1

[26] = tested on: field corn (Zea mays L., var. Dekalb 535, CORN); test: Post-emerge greenhouse screening, crop safety / corn selectivity (phytotoxicity rating)
Summary of the method: as §1

COc1ccccc1Oc1cc(-n2c(=O)cc(C(F)(F)F)n(C)c2=S)c(F)cc1C#N [Compound 1-71]
SOY crop damage, phytotoxicity rating (0-100 scale) ([1]; 125 g ai/ha): 50 | SOY crop damage, phytotoxicity rating (0-100 scale) ([1]; 250 g ai/ha): 75 | RICE crop damage, phytotoxicity rating (0-100 scale) ([2]; 125 g ai/ha): 0 | RICE crop damage, phytotoxicity rating (0-100 scale) ([2]; 250 g ai/ha): 0 | CHEAL phytotoxicity rating (0-100 scale) ([3]; 125 g ai/ha): 100 | CHEAL phytotoxicity rating (0-100 scale) ([3]; 250 g ai/ha): 100 | AMARE phytotoxicity rating (0-100 scale) ([4]; 125 g ai/ha): 100 | AMARE phytotoxicity rating (0-100 scale) ([4]; 250 g ai/ha): 100 | AMBEL phytotoxicity rating (0-100 scale) ([5]; 125 g ai/ha): 100 | AMBEL phytotoxicity rating (0-100 scale) ([5]; 250 g ai/ha): 100 | IPOHE phytotoxicity rating (0-100 scale) ([6]; 125 g ai/ha): 100 | IPOHE phytotoxicity rating (0-100 scale) ([6]; 250 g ai/ha): 100 | SORHA phytotoxicity rating (0-100 scale) ([7]; 125 g ai/ha): 99 | SORHA phytotoxicity rating (0-100 scale) ([7]; 250 g ai/ha): 100 | CASOB phytotoxicity rating (0-100 scale) ([8]; 125 g ai/ha): 95 | CASOB phytotoxicity rating (0-100 scale) ([8]; 250 g ai/ha): 100 | ECHCG phytotoxicity rating (0-100 scale) ([9]; 125 g ai/ha): 100 | ECHCG phytotoxicity rating (0-100 scale) ([9]; 250 g ai/ha): 100 | DIGSA phytotoxicity rating (0-100 scale) ([10]; 125 g ai/ha): 100 | DIGSA phytotoxicity rating (0-100 scale) ([10]; 250 g ai/ha): 100 | ABUTH phytotoxicity rating (0-100 scale) ([11]; 125 g ai/ha): 100 | ABUTH phytotoxicity rating (0-100 scale) ([11]; 250 g ai/ha): 100 | SETVI phytotoxicity rating (0-100 scale) ([12]; 125 g ai/ha): 100 | SETVI phytotoxicity rating (0-100 scale) ([12]; 250 g ai/ha): 100 | SOY crop damage, phytotoxicity rating (0-100 scale) ([13]; 125 g ai/ha): 45 | SOY crop damage, phytotoxicity rating (0-100 scale) ([13]; 250 g ai/ha): 60 | RICE crop damage, phytotoxicity rating (0-100 scale) ([14]; 125 g ai/ha): 50 | RICE crop damage, phytotoxicity rating (0-100 scale) ([14]; 250 g ai/ha): 65 | CORN crop damage, phytotoxicity rating (0-100 scale) ([15]; 125 g ai/ha): 0 | CORN crop damage, phytotoxicity rating (0-100 scale) ([15]; 250 g ai/ha): 5 | CHEAL phytotoxicity rating (0-100 scale) ([16]; 125 g ai/ha): 100 | CHEAL phytotoxicity rating (0-100 scale) ([16]; 250 g ai/ha): 100 | AMARE phytotoxicity rating (0-100 scale) ([17]; 125 g ai/ha): 100 | AMARE phytotoxicity rating (0-100 scale) ([17]; 250 g ai/ha): 100 | AMBEL phytotoxicity rating (0-100 scale) ([18]; 125 g ai/ha): 80 | AMBEL phytotoxicity rating (0-100 scale) ([18]; 250 g ai/ha): 90 | IPOHE phytotoxicity rating (0-100 scale) ([19]; 125 g ai/ha): 100 | IPOHE phytotoxicity rating (0-100 scale) ([19]; 250 g ai/ha): 100 | SORHA phytotoxicity rating (0-100 scale) ([20]; 125 g ai/ha): 0 | SORHA phytotoxicity rating (0-100 scale) ([20]; 250 g ai/ha): 15 | CASOB phytotoxicity rating (0-100 scale) ([21]; 125 g ai/ha): 50 | CASOB phytotoxicity rating (0-100 scale) ([21]; 250 g ai/ha): 50 | ECHCG phytotoxicity rating (0-100 scale) ([22]; 125 g ai/ha): 35 | ECHCG phytotoxicity rating (0-100 scale) ([22]; 250 g ai/ha): 65 | DIGSA phytotoxicity rating (0-100 scale) ([23]; 125 g ai/ha): 50 | DIGSA phytotoxicity rating (0-100 scale) ([23]; 250 g ai/ha): 60 | ABUTH phytotoxicity rating (0-100 scale) ([24]; 125 g ai/ha): 100 | ABUTH phytotoxicity rating (0-100 scale) ([24]; 250 g ai/ha): 100 | SETVI phytotoxicity rating (0-100 scale) ([25]; 125 g ai/ha): 85 | SETVI phytotoxicity rating (0-100 scale) ([25]; 250 g ai/ha): 85 | CORN crop damage, phytotoxicity rating (0-100 scale) ([26]; 125 g ai/ha): 0 | CORN crop damage, phytotoxicity rating (0-100 scale) ([26]; 250 g ai/ha): 0

COc1ccc(Oc2cc(-n3c(=O)cc(C(F)(F)F)n(C)c3=S)c(F)cc2C#N)cc1 [Compound 1-72]
SOY crop damage, phytotoxicity rating (0-100 scale) ([1]; 125 g ai/ha): 0 | SOY crop damage, phytotoxicity rating (0-100 scale) ([1]; 250 g ai/ha): 0 | RICE crop damage, phytotoxicity rating (0-100 scale) ([2]; 125 g ai/ha): 0 | RICE crop damage, phytotoxicity rating (0-100 scale) ([2]; 250 g ai/ha): 0 | CHEAL phytotoxicity rating (0-100 scale) ([3]; 125 g ai/ha): 100 | CHEAL phytotoxicity rating (0-100 scale) ([3]; 250 g ai/ha): 100 | AMARE phytotoxicity rating (0-100 scale) ([4]; 125 g ai/ha): 100 | AMARE phytotoxicity rating (0-100 scale) ([4]; 250 g ai/ha): 100 | AMBEL phytotoxicity rating (0-100 scale) ([5]; 125 g ai/ha): 95 | AMBEL phytotoxicity rating (0-100 scale) ([5]; 250 g ai/ha): 95 | IPOHE phytotoxicity rating (0-100 scale) ([6]; 125 g ai/ha): 95 | IPOHE phytotoxicity rating (0-100 scale) ([6]; 250 g ai/ha): 100 | SORHA phytotoxicity rating (0-100 scale) ([7]; 125 g ai/ha): 60 | SORHA phytotoxicity rating (0-100 scale) ([7]; 250 g ai/ha): 60 | CASOB phytotoxicity rating (0-100 scale) ([8]; 125 g ai/ha): 65 | CASOB phytotoxicity rating (0-100 scale) ([8]; 250 g ai/ha): 100 | ECHCG phytotoxicity rating (0-100 scale) ([9]; 125 g ai/ha): 20 | ECHCG phytotoxicity rating (0-100 scale) ([9]; 250 g ai/ha): 80 | DIGSA phytotoxicity rating (0-100 scale) ([10]; 125 g ai/ha): 95 | DIGSA phytotoxicity rating (0-100 scale) ([10]; 250 g ai/ha): 99 | ABUTH phytotoxicity rating (0-100 scale) ([11]; 125 g ai/ha): 100 | ABUTH phytotoxicity rating (0-100 scale) ([11]; 250 g ai/ha): 100 | SETVI phytotoxicity rating (0-100 scale) ([12]; 125 g ai/ha): 20 | SETVI phytotoxicity rating (0-100 scale) ([12]; 250 g ai/ha): 80 | SOY crop damage, phytotoxicity rating (0-100 scale) ([13]; 125 g ai/ha): 0 | SOY crop damage, phytotoxicity rating (0-100 scale) ([13]; 250 g ai/ha): 40 | RICE crop damage, phytotoxicity rating (0-100 scale) ([14]; 125 g ai/ha): 0 | RICE crop damage, phytotoxicity rating (0-100 scale) ([14]; 250 g ai/ha): 0 | CORN crop damage, phytotoxicity rating (0-100 scale) ([15]; 125 g ai/ha): 5 | CORN crop damage, phytotoxicity rating (0-100 scale) ([15]; 250 g ai/ha): 8 | CHEAL phytotoxicity rating (0-100 scale) ([16]; 125 g ai/ha): 100 | CHEAL phytotoxicity rating (0-100 scale) ([16]; 250 g ai/ha): 100 | AMARE phytotoxicity rating (0-100 scale) ([17]; 125 g ai/ha): 80 | AMARE phytotoxicity rating (0-100 scale) ([17]; 250 g ai/ha): 90 | AMBEL phytotoxicity rating (0-100 scale) ([18]; 125 g ai/ha): 0 | AMBEL phytotoxicity rating (0-100 scale) ([18]; 250 g ai/ha): 0 | IPOHE phytotoxicity rating (0-100 scale) ([19]; 125 g ai/ha): 60 | IPOHE phytotoxicity rating (0-100 scale) ([19]; 250 g ai/ha): 60 | SORHA phytotoxicity rating (0-100 scale) ([20]; 125 g ai/ha): 0 | SORHA phytotoxicity rating (0-100 scale) ([20]; 250 g ai/ha): 0 | CASOB phytotoxicity rating (0-100 scale) ([21]; 125 g ai/ha): 0 | CASOB phytotoxicity rating (0-100 scale) ([21]; 250 g ai/ha): 0 | ECHCG phytotoxicity rating (0-100 scale) ([22]; 125 g ai/ha): 0 | ECHCG phytotoxicity rating (0-100 scale) ([22]; 250 g ai/ha): 0 | DIGSA phytotoxicity rating (0-100 scale) ([23]; 125 g ai/ha): 0 | DIGSA phytotoxicity rating (0-100 scale) ([23]; 250 g ai/ha): 0 | ABUTH phytotoxicity rating (0-100 scale) ([24]; 125 g ai/ha): 80 | ABUTH phytotoxicity rating (0-100 scale) ([24]; 250 g ai/ha): 90 | SETVI phytotoxicity rating (0-100 scale) ([25]; 125 g ai/ha): 0 | SETVI phytotoxicity rating (0-100 scale) ([25]; 250 g ai/ha): 0 | CORN crop damage, phytotoxicity rating (0-100 scale) ([26]; 125 g ai/ha): 0 | CORN crop damage, phytotoxicity rating (0-100 scale) ([26]; 250 g ai/ha): 0
